From ChEMBL document CHEMBL2074511, “Molecular cloning and pharmacological characterization of rat multidrug resistance protein 1 (mrp1)” (Drug Metab Dispos, 2003)

The compounds below were run on Multidrug resistance-associated protein 1 (assay: TP_TRANSPORTER: drug resistance in MRP1-expressing HEK293 cells). Conditions: human.
Assay type: functional, cell-based

Activity, substrate []:
COc1cccc2c1C(=O)c1c(O)c3c(c(O)c1C2=O)C[C@@](O)(C(=O)CO)C[C@@H]3O[C@H]1C[C@H](N)[C@H](O)[C@H](C)O1 [DOXORUBICIN]
COc1cccc2c1C(=O)c1c(O)c3c(c(O)c1C2=O)C[C@@](O)(C(=O)CO)C[C@@H]3O[C@H]1C[C@H](N)[C@@H](O)[C@H](C)O1 [EPIRUBICIN]
COc1cc([C@@H]2c3cc4c(cc3[C@@H](O[C@@H]3O[C@@H]5CO[C@@H](C)O[C@H]5[C@H](O)[C@H]3O)[C@H]3COC(=O)[C@H]23)OCO4)cc(OC)c1O [ETOPOSIDE]
CC[C@]1(O)C[C@H]2CN(CCc3c([nH]c4ccccc34)[C@@](C(=O)OC)(c3cc4c(cc3OC)N(C=O)[C@H]3[C@@](O)(C(=O)OC)[C@H](OC(C)=O)[C@]5(CC)C=CCN6CC[C@]43[C@@H]65)C2)C1 [VINCRISTINE]
